Results from a melting point compilation (Tetko et al.; mined from patent text by program, amines drawn as free bases though some values may be those of a salt).

First: CCOC(=O)CN(c1ccccc1)[C@H]1c2cc(C#N)ccc2OC(C)(C)[C@@H]1O
Second: COc1ccc(C(=O)c2cccc(C#N)c2)cc1
The melting point of the first is higher: 182 to 183 °C for the first, 85 to 88 °C for the second.

First: C[C@@H](O[C@H]1CCCN(Cc2n[nH]c(=O)[nH]2)[C@H]1c1ccccc1)c1cccc(Br)c1
Second: NC(=O)N(O)CC#Cc1cccc(C2=N[C@H](c3ccccc3)CS2)c1
The melting point of the first is higher: 165 °C for the first, 155 to 157 °C for the second.

Compared with `O=S(=O)(c1cc(C(F)(F)F)[nH]c1-c1ccc(Cl)cc1)C(F)(F)F`, `FC(F)(F)c1ccc(-c2cc(C(F)(F)F)n3nccc3n2)cc1` is lower in melting point: 167 to 169 °C for the first, 110 to 111 °C for the second.

Compared with `CC(=O)Nc1ccc(N=C=S)cc1O`, `Cc1cccc(NC(=O)CS)c1` is lower in melting point: 68 to 70 °C for the first, 58 to 60 °C for the second.

First: COc1ccsc1CN=C(NC#N)Oc1ccccc1
Second: N#CNC1NN=C(c2ccc3ccccc3c2)S1 (centres undefined)
The melting point of the first is lower: 170 to 171 °C for the first, > 260 °C for the second.

First: O=C(c1ccc([N+](=O)[O-])cc1)c1ccc2[nH]c(=O)cc(-c3cccc(Cl)c3)c2c1
Second: CCc1ccc(-c2sc(NC(=O)c3ccc(S(=O)(=O)N4CCCC4C(=O)O)cc3)nc2-c2ccc(Cl)cc2)cc1 (centres undefined)
The melting point of the first is lower: 227 °C for the first, 289 to 292 °C for the second.

First: NC(=O)c1cccc2c1nc(-c1c(F)cccc1F)n2Cc1c(F)cccc1F
Second: Cc1cccc2c1nc(-c1cccc3ccccc13)n2Cc1c(F)cccc1F
The melting point of the first is higher: 260 to 261 °C for the first, 121 to 123 °C for the second.

Compared with `COc1ccc(C2=NNC(=O)CC2c2ccc(OC)c(F)c2)cc1` (centres undefined), `CCS(=O)(=O)c1nn2c(-c3ccc(OC)cc3)nnc2c2ccccc12` is higher in melting point: 171 to 173 °C for the first, 210 to 213 °C for the second.

First: N#Cc1nn(-c2c(Cl)cc(C(F)(F)F)cc2Cl)c(N)c1-c1cc(Cl)cc(Cl)c1
Second: FC(F)(F)C1(c2cc(Cl)cc(Cl)c2)CC(c2ccc(-n3cccc3)cc2)=NO1 (centres undefined)
The melting point of the first is higher: 228 to 230 °C for the first, 206 to 208 °C for the second.

Compared with `CN(CCOc1ccc(CC(Cl)C(=O)O)cc1)c1nc2ccccc2o1` (centres undefined), `O=C(c1ccccc1)c1ccc(OCCO)cc1O` is lower in melting point: 142 to 143 °C for the first, 92 to 94 °C for the second.

First: CCCCc1nc(Cl)c(C(=O)OC)n1Cc1ccc(-c2ccccc2C(=O)O)cc1
Second: Cc1ccc(-c2ccccc2C(=O)N(C)NC(N)=O)cc1
The melting point of the first is lower: 154 to 155 °C for the first, 217 to 218 °C for the second.

First: COc1ccc(C(=O)Nc2ccccc2)cc1NCc1ccc(OC)c(OC)c1
Second: CCCC(=O)c1cnc2c(OC)cccc2c1Nc1ccccc1CO
The melting point of the first is higher: 187 to 188 °C for the first, 159 to 161 °C for the second.

Compared with `CSCCOc1ccc(-c2coc3ccc(-c4nnc(C)o4)cc23)cc1`, `COc1cc(OC)cc(-c2ncoc2-c2ccc3c(c2)NCCO3)c1` is higher in melting point: 89 to 90 °C for the first, 175 to 178 °C for the second.

First: CCC(=O)NCCC1=CCc2ccc(OC)cc21
Second: COc1ccc2cccc(C(CCO)CNC(=O)C3CC3)c2c1 (centres undefined)
The melting point of the first is lower: 61 to 63 °C for the first, 158 to 160 °C for the second.

First: CC(C)(C)OC(=O)NC(Cc1ccccc1)C(O)CNCC(O)C(Cc1ccccc1)NC(=O)C(O)(CO)C(C)(C)C (centres undefined)
Second: CC(C)(NC(=O)CNC(=O)c1ccccc1)c1ccccc1
The melting point of the first is lower: 84 to 86 °C for the first, 156 to 157 °C for the second.

First: CN(C)C(=C[N+](=O)[O-])NCc1ccc(Cl)cc1
Second: CC(COc1ccc(/C=C/C(=O)O)cc1)N(C)C (centres undefined)
The melting point of the first is lower: 133 to 135 °C for the first, 231 °C for the second.

Compared with `CC(=O)NC[C@H]1CN(c2ccc(N3CCC4(CC3)CSCO4)c(F)c2)C(=O)O1`, `CC1(C)OC(=O)N2CCN(C(=O)OCc3ccccc3)CC21` (centres undefined) is lower in melting point: 114 to 116 °C for the first, 86 to 88 °C for the second.

Compared with `CC(=O)c1c(-c2ccccc2)nn(CC2CC2)c(=O)c1Nc1cccc2cccnc12`, `O=c1c2ccccc2nc(-n2ccnc2)n1-c1ccccc1` is higher in melting point: 123 to 125 °C for the first, 163 to 165 °C for the second.

Compared with `CCCC[C@H](NC(=O)[C@H](CC(C)C)NC(=O)OCc1ccc(C#N)cc1)C(=O)CSCc1ccco1`, `CCOC(=O)Cc1csc(NC(=O)C(N)Cc2ccc(F)cc2)n1` (centres undefined) is higher in melting point: 83 to 89 °C for the first, 124 to 127 °C for the second.

First: CCCCC1OC(=O)c2cc(N)c(N)cc21 (centres undefined)
Second: CCCOC(=O)C(OC)C(=O)Nc1cc(Cl)cc(Cl)c1 (centres undefined)
The melting point of the first is higher: 94 to 96 °C for the first, 89 to 92 °C for the second.

First: CN1CCC(Sc2ccccc2)C(C#N)C1 (centres undefined)
Second: Cc1ccccc1C(O)C1CCN(C)CC1 (centres undefined)
The melting point of the first is lower: 114 °C for the first, 119 to 123 °C for the second.

First: Clc1ccc(COC(C=Cc2ccccc2)Cn2ccnc2)c(Cl)c1 (centres undefined)
Second: O=S(=O)(Nc1nccnc1OCc1ccc(CO)cc1)c1cccc(Cl)c1Cl
The melting point of the first is lower: 134 °C for the first, 160 to 161 °C for the second.

First: COC(=O)C(NC(C)=O)C(=O)OCCCl (centres undefined)
Second: CSc1nc(N)ncc1S(=O)(=O)NC(=O)NC(C)C
The melting point of the first is lower: 81 to 82 °C for the first, 190 to 192 °C for the second.

First: c1cc2c(Nc3ccc4[nH]ccc4c3)ncnc2cn1
Second: CCOC(=O)Cc1cnc(Nc2n[nH]c3ccc(-c4ncccc4Cl)cc23)s1
The melting point of the first is higher: 265 °C for the first, 259 to 261 °C for the second.

First: Cc1nc(C)c(Cl)c(NCc2ccc(Oc3ccc4ncc([N+](=O)[O-])n4n3)c(OC(F)F)c2)n1
Second: COc1cc(COc2nn(-c3ccc(C(F)(F)F)cc3)cc2/C=C/C(=O)OCOC(=O)C(C)(C)C)ccc1OCc1nc(-c2ccccc2)oc1C
The melting point of the first is higher: 191 to 194 °C for the first, 131 to 132 °C for the second.

First: COc1cc(OC)nc(NC(=O)NS(=O)(=O)c2ccccc2CN2CN=CN2)n1
Second: COc1cc(C)nc(-c2ccc(C=O)cc2)n1
The melting point of the first is higher: 219 to 220 °C for the first, 125 to 126 °C for the second.

First: O=C(O)c1cc2c(=O)n(C3CCCC3)c3ccccc3n2c1
Second: CC(C)CC(SC1CCCCC1)c1c(O)cc(-c2ccccc2)oc1=O (centres undefined)
The melting point of the first is higher: 215 to 216 °C for the first, 210 to 212 °C for the second.

Compared with `CCOCc1ccc(C=C(C)c2ccc3c(c2)C(C)(C)CCO3)cc1`, `CN1C(c2ccc(Br)cc2)C2C(=O)N(Cc3ccc4c(c3)OCO4)C(O)C2C1(C)C` (centres undefined) is higher in melting point: 59 to 60 °C for the first, 158 to 159 °C for the second.

Compared with `O=C1C(Br)=CN=CC1Br` (centres undefined), `Cc1ccc(C(=O)O)nn1` is lower in melting point: 320 °C for the first, 174 °C for the second.

First: CN1C2CCC1CC(O)(c1ccc(C(F)(F)F)cc1)C2 (centres undefined)
Second: CS(=O)c1ccc2c(c1)C=C(C(=O)O)C(C(F)(F)F)O2 (centres undefined)
The melting point of the first is higher: 189 to 190 °C for the first, 148 to 151 °C for the second.

First: Nc1cccc(Cc2ccccc2)n1
Second: C=CC[C@](N)(Cc1ccccc1)C(=O)O
The melting point of the first is lower: 50.7 °C for the first, 158 to 159 °C for the second.

Compared with `CC1(C)O[C@H]2[C@H](OCc3ccccc3)O[C@H](C(=O)O)[C@H]2O1`, `Cc1cc2c(-c3ccccc3)noc2c2c1OC(CO)C2` (centres undefined) is higher in melting point: 79 °C for the first, 130 to 133 °C for the second.

Compared with `CCCc1nc2c(N)nc3ccccc3c2n1CC(=O)OCC`, `OC1C2=C(CCN(CCCCc3c[nH]c4ccccc34)C2)c2ccccc21` (centres undefined) is higher in melting point: 170 to 172 °C for the first, 205 to 208 °C for the second.

Compared with `CCCCCC1OC12CCC(Nc1ncnc(CC)c1Cl)CC2` (centres undefined), `CCC(C)NC(=O)NCC=CCOc1cc(CN2CCCCC2)ccn1` (centres undefined) is higher in melting point: 41 to 42 °C for the first, 72 to 74 °C for the second.

First: O=Cc1c2n(c3ccc(Cl)cc13)CCC2
Second: CC(=O)c1ccc2nc3n(c2c1)CCC(=O)N3
The melting point of the first is lower: 179 to 180 °C for the first, > 320 °C for the second.

Compared with `O=C(N[C@H](c1ccccc1)[C@@H](O)CO)c1cc2ccccc2[nH]1` (racemic), `Cn1cc(-c2cc3cccnc3[nH]2)c2ccc(C(=O)NC(CO)CO)cc21` is higher in melting point: 151 °C for the first, 247 to 249 °C for the second.

First: C=CCNc1c(CO)cnc2cn[nH]c12
Second: Cn1nc([N+](=O)[O-])cc1CO
The melting point of the first is higher: 190 to 192 °C for the first, 66 to 68 °C for the second.

Compared with `Cc1cc(N2CCN(Cc3ccc(F)cc3)C2=O)sc1C(=O)NCc1cccs1`, `COC(=O)c1ccc2c(c1)c1cc(-c3ccc(CN4CCOCC4)cc3)c(=O)n(C)c1n2C` is higher in melting point: 128 to 131 °C for the first, 175 °C for the second.

Compared with `CCOc1ccc(OCC)c(C=O)c1`, `COc1cccc2c(=O)[nH]ccc12` is higher in melting point: 60 to 61 °C for the first, 215 to 217 °C for the second.

First: CCOC(=O)C(=CNc1ccc([N+](=O)[O-])cc1O)C(=O)c1cc(F)c(F)c(F)c1F
Second: CSc1ccc(C(=O)c2cc(C)cc(CC(N)=O)c2N)cc1
The melting point of the first is higher: 225 °C for the first, 188 to 190 °C for the second.

First: CC(=O)Nc1cc2c3c(c1)c(=O)c(C(=O)O)cn3C(C)CC2 (centres undefined)
Second: O=C(O)c1cn(-c2csnn2)c2cc(F)c(F)cc2c1=O
The melting point of the first is higher: > 310 °C for the first, 239 to 244 °C for the second.

First: Cc1c(C)c2c(c(C)c1NC(=O)NCCCO)C(c1ccc(C(C)C)cc1)CO2 (centres undefined)
Second: Cc1ccc(-c2cc(C(=O)C=Cc3ccc(C(=O)O)cc3)cc(C(C)(C)C)c2OCC(C)C)cc1
The melting point of the first is lower: 185 to 186 °C for the first, 243 °C for the second.

Compared with `Cc1ccnc2c1C(O)c1ccccc1-2` (centres undefined), `CC(C)(C)c1cccc(Br)c1Oc1ccc(O)nn1` is higher in melting point: 154 to 156 °C for the first, 255 to 257 °C for the second.

First: CCc1n[nH]c(=O)n1C
Second: COC(=O)c1ccc(Cl)c(-n2nnn(C)c2=O)c1Cl
The melting point of the first is lower: 86 °C for the first, 135 to 137 °C for the second.

Compared with `COc1ccccc1N1CCN(CC(O)CS(=O)c2ccc(F)cc2)CC1` (centres undefined), `COc1cccc(CN2CCC3(CCc4c3n(C)c3ccccc43)CC2)c1` is lower in melting point: 164 to 165 °C for the first, 100 to 101 °C for the second.

First: CN1CCC(Oc2ccccc2)(c2ccccc2)CC1
Second: O=C1c2ccccc2C(=O)N1CC(=O)N1c2ccccc2N(Cc2ccccc2F)C(=O)[C@H]2CCC[C@H]21 (relative stereo)
The melting point of the first is lower: 99 to 101 °C for the first, 250 to 253 °C for the second.

First: Cc1nc(C)c(CCl)cc1CCl
Second: CCOC(=O)C1Nc2cc(Cl)c(Cl)cc2NC1=O (centres undefined)
The melting point of the first is lower: 108 to 109 °C for the first, > 300 °C for the second.

First: Cc1cc(Oc2c(Cl)cc(C(F)(F)F)cc2Cl)nn1C(=O)NCC(F)(F)F
Second: C[C@@H]1O[C@@]1(Cn1ccnc1)c1ccc(F)cc1F
The melting point of the first is higher: 104 to 106 °C for the first, 73 to 76 °C for the second.

Compared with `CCCC(c1ccccc1)c1c(O)c2c(oc1=O)CCCCCC2` (centres undefined), `CC(C)(C)C(=O)Nc1ccc2oc3c(c2c1)CCCC3` is higher in melting point: 173 to 175 °C for the first, 210 to 211 °C for the second.

First: O=C(/C=C1\CCc2ccc(F)cc21)NC1CC1
Second: CN1C(=O)C2(COc3cc4c(cc32)CCO4)c2ccccc21 (centres undefined)
The melting point of the first is lower: 124 to 127 °C for the first, 187 to 190 °C for the second.

Compared with `CC(C)(C)OC(=O)C1CCCNN1C(=O)C(CCC(=O)O)N1C(=O)c2ccccc2C1=O` (centres undefined), `O=S(=O)(Oc1ccc(C2(c3ccc(OS(=O)(=O)c4ccccc4)cc3)c3ccccc3-c3ccccc32)cc1)c1ccccc1` is higher in melting point: 132 to 134 °C for the first, 225 to 226 °C for the second.

First: COc1cc(OC)cc(OC(=S)N(C)C)c1
Second: Cc1cccc(N(c2cccc(C)c2)c2c(N(c3cccc(C)c3)c3cccc(C)c3)c3ccccc3c3ccccc23)c1
The melting point of the first is lower: 77 to 78 °C for the first, 223 to 224 °C for the second.
